Measured values from patent publication US20230270113A1, “FUNGICIDAL MIXTURES” (Adama Makhteshim Ltd., priority 2020, published 2023).
Read-outs that look alike come from different tables or passages of the source.

Tests used:
Alternaria solani [1] = experiment: Example 6b: greenhouse control of Alternaria solani in potato plants; assay type: in vivo
Venturia inaequalis [2] = experiment: Example 1b: greenhouse control of apple scab, reduced rates of phthalimides and difenoconazole; assay type: in vivo; conditions: for % control observed on leaves 26 DAYS after the application / % control observed on leaves 19 DAYS after the application: captan or folpet 900, difenoconazole 35, tebuconazole 150, fluopyram 150 gAI/ha
Venturia inaequalis [3] = experiment: Example 2: greenhouse control of apple scab, phthalimides with cyprodinil and/or fluxapyroxad; assay type: in vivo; conditions: Table 6; captan or folpet 1200, cyprodinil 300, fluxapyroxad 90 gAI/ha; one spray 1 day before inoculation
Venturia inaequalis [4] = experiment: Example 13: greenhouse control of apple scab, fluxapyroxad and captan; assay type: in vivo
Phytophthora infestans = assay type: in vivo; conditions: tomato
Venturia inaequalis [5] = experiment: Example A: greenhouse control of apple scab, phthalimides with DMI and/or fluopyram; assay type: in vivo; conditions: for % control observed on leaves 26 DAYS after the application / % control observed on leaves 19 DAYS after the application: captan or folpet 1200, difenoconazole 75, tebuconazole 150, fluopyram 150 gAI/ha; for Var % (19/26 DAYS): change of % control from 19 to 26 days
Alternaria solani [6] = experiment: Example 5: greenhouse control of Alternaria solani in tomato, phthalimides with azoxystrobin and/or fluxapyroxad; assay type: in vivo
Alternaria solani [7] = experiment: Example 4: greenhouse control of Alternaria solani in tomato seedlings, phthalimides with DMI and/or fluxapyroxad; assay type: in vivo; conditions: Table 9
[8] = system: Zymoseptoria tritici Tri-R6 strain; assay type: in vivo; conditions: for residual efficacy of the contact active ingredients after the washing step: 21 and 28 days after inoculation; for efficacy in the untreated area: contact fungicide as partner of FLUXAPYROXAD
Plasmopara viticola [9] = experiment: Example 22: greenhouse control of Plasmopara viticola in grape, fluxapyroxad and folpet; assay type: in vivo; conditions: variety Barbera
Erysiphe necator = experiment: Example 9: greenhouse control of Erysiphe necator in grape plants; assay type: in vivo
Procedure: • An experiment was conducted in controlled conditions under a greenhouse to evaluate the fungicidal activity of the mixture comprising (1) phthalimide fungicide (folpet, captan) and (2) demethylation inhibitor fungicide (difenoconazole) or a quinone outside inhibitors (azoxystrobin, pyraclostrobin), toward Erysiphe necator in grape plants, variety Barbera. In addition, the activity of phthalimide with two fungicides (A); demethylation inhibitor fungicide (difenoconazole) or a quinone outside inhibitors (azoxystrobin, pyraclostrobin and dehydrogenase inhibitor fungicide (fluxapyroxad) was also tested. • The experiment was conducted by applying compositions of fluxapyroxad, difenoconazole (Score® 10 WG), azoxystrobin (Ortiva®), pyraclostrobin (Cabrio® EC) and folpet (Folpan 80 WDG®) alone or together. The compositions were diluted with water. Water amount used was equivalent to 800 L/ha. Application was performed in an automatic spraying cabin equipped with 2 flatfan AI11003VS nozzles. • Treatments: • Folpet 1000 gr (A.I.)/ha • Fluxapyroxad 45 gr (A.I.)/ha • Difenoconazole 37.5 gr (A.I.)/ha • Difenoconazole 37.5 gr (A.I.)/ha+folpet 1000 gr (A.I.)/ha • Azoxystrobin 90 gr (A.I.)/ha • Azoxystrobin 90 gr (A.I.)/ha+folpet 1000 gr (A.I.)/ha • Pyraclostrobin 75 gr (A.I.)/ha • Pyraclostrobin 75 gr (A.I.)/ha+folpet 1000 gr (A.I.)/ha • Fluxapyroxad 45 gr (A.I.)/ha+Difenoconazole 37.5 gr (A.I.)/ha • Fluxapyroxad 45 gr (A.I.)/ha+Difenoconazole 37.5 gr (A.I.)/ha+folpet 1000 gr (A.I.)/ha • Azoxystrobin 90 gr (A.I.)/ha+Fluxapyroxad 45 gr (A.I.)/ha • Azoxystrobin 90 gr (A.I.)/ha+Fluxapyroxad 45 gr (A.I.)/ha+folpet 1000 gr (A.I.)/ha • Azoxystrobin 90 gr (A.I.)/ha+Difenoconazole 37.5 gr (A.I.)/ha • Azoxystrobin 90 gr (A.I.)/ha+Difenoconazole 37.5 gr (A.I.)/ha+folpet 1000 gr (A.I.)/ha • Pyraclostrobin 75 gr (A.I.)/ha+Fluxapyroxad 45 gr (A.I.)/ha • Pyraclostrobin 75 gr (A.I.)/ha+Fluxapyroxad 45 gr (A.I.)/ha+folpet 1000 gr (A.I.)/ha • Pyraclostrobin 75 gr (A.I.)/ha+Difenoconazole 37.5 gr (A.I.)/ha • Pyraclostrobin 75 gr (A.I.)/ha+Difenoconazole 37.5 gr (A.I.)/ha+folpet 1000 gr (A.I.)/ha • To test for fungicidal control of Erysiphe necator, the grape plants were sprayed with each of the above treatments. Each of the above treatments was applied from 4 to 10 times according to the disease development, applications occurring 7-14 days after the previous treatment. The treatments were composed of 4 replicates. • Evaluations were performed for the whole duration of the experiment. At each time the incidence and the severity of Erysiphe necator on plants parts was determined.

Plasmopara viticola [10] = experiment: Example 7: greenhouse control of Plasmopara viticola in grape plants, folpet with partners; assay type: in vivo
Sphaerotheca fuliginea = experiment: Example 10: greenhouse control of Sphaerotheca fuliginea on melon plants; assay type: in vivo
Zymoseptoria tritici = experiment: Example 28: in planta bioassay of penetration and translocation of QoI with folpet, wheat leaf segments; assay type: in vivo; conditions: example written in the present tense
Plasmopara viticola [11] = experiment: Example 8: greenhouse control of Plasmopara viticola in young grape plants, folpet with potassium phosphonate
Botrytis cinerea = experiment: Example 11: greenhouse control of Botrytis cinerea in strawberry; assay type: in vivo
[12] = Table 4, one spray 1 day before inoculation
[13] = Table 2, one spray 1 day before inoculation, severity based
[14] = Table 10, captan or folpet 900 gAI/ha
[15] = Table 10, captan or folpet 1200, azoxystrobin 120, fluxapyroxad 75 gAI/ha, one spray 1 day before inoculation
[16] = captan or folpet 1200, difenoconazole 75, tebuconazole 150, fluxapyroxad 75 gAI/ha, one spray 1 day before inoculation
[17] = 28 days, comparison with FLUXAPYROXAD alone

Row | Compound | % control observed on leaves 21 DAYS after the application (Alternaria solani [1]; rate 900 gr (A.I.)/ha) | % control observed on leaves 21 DAYS after the application (Alternaria solani [1]; rate 1200 gr (A.I.)/ha) | % control observed on leaves 26 DAYS after the application (Venturia inaequalis [2]; [12]) | % control observed on leaves 19 DAYS after the application (Venturia inaequalis [2]; Table 5) | % control observed on leaves 26 DAYS after the application (Venturia inaequalis [2]; Table 5) | % control observed on leaves 26 DAYS after the application (Venturia inaequalis [3]) | % control observed on leaves 14 DAYS after the application (Phytophthora infestans; rate 900 gr (A.I.)/ha) | % control observed on leaves 14 DAYS after the application (Phytophthora infestans; rate 1200 gr (A.I.)/ha) | % control observed on leaves 26 DAYS after the application (Venturia inaequalis [5]; [13]) | % control observed on leaves 19 DAYS after the application (Venturia inaequalis [5]; Table 3) | % control observed on leaves 26 DAYS after the application (Venturia inaequalis [5]; Table 3) | Var % (19/26 DAYS) (Venturia inaequalis [5]; Table 3) | % control observed on leaves 20 DAYS after the application (Alternaria solani [6]; [14]) | % control observed on leaves 20 DAYS after the application (Alternaria solani [6]; [15]) | % control observed on leaves 14 DAYS after the application (Alternaria solani [6]; rate 900 gAI/ha, tomato) | % control observed on leaves 20 DAYS after the application (Alternaria solani [6]; rate 900 gAI/ha, tomato) | Var % (14/20 DAYS) (Alternaria solani [6]; rate 900 gAI/ha, tomato) | % control observed on leaves 20 DAYS after the application (Alternaria solani [7]; [16]) | residual efficacy of the contact active ingredients after the washing step [8] | difference from the untreated control after the washing step, treated and untreated areas (Zymoseptoria tritici) | further results
1 | O=C1C2CC=CCC2C(=O)N1SC(Cl)(Cl)Cl (stereo not shown) [CAPTAN, captan] | 54.1% | 64.8% | 77% | 83.9% | 77% | 68.3% | 57.0% | 72.4% | 75.9% | 82.6% | 75.9% | −8.1% | 54.5% | 65.9% | 64.9% | 54.5% | −16.0% | 64.3% | – | – | Var % (19/26 DAYS) (Venturia inaequalis [2]; Table 5, change of % control from 19 to 26 days): −8.2%; % control observed on leaves 26 DAYS after the application (Venturia inaequalis [4]; rate 600 gAI/ha): 50.4%; % control observed on leaves 26 DAYS after the application (Venturia inaequalis [4]; rate 900 gAI/ha): 68.1%; % control observed on leaves 26 DAYS after the application (Venturia inaequalis [4]; rate 1200 gAI/ha): 78.5%; % control observed on leaves 26 DAYS after the application (Venturia inaequalis [4]; rate 1500 gAI/ha): 89.1%; % control observed on leaves 14 DAYS after the application (Alternaria solani [6]; rate 1200 gAI/ha, tomato): 76%; % control observed on leaves 20 DAYS after the application (Alternaria solani [6]; rate 1200 gAI/ha, tomato): 65.9%; Var % (14/20 DAYS) (Alternaria solani [6]; rate 1200 gAI/ha, tomato): −13.3%; % control observed on leaves 20 DAYS after the application (Alternaria solani [7]; captan or folpet 900 gAI/ha): 51.3%
2 | Cn1cc(C(=O)Nc2ccccc2-c2cc(F)c(F)c(F)c2)c(C(F)F)n1 [FLUXAPIROXAD, fluxapyroxad] | – | – | – | – | – | 75% | – | – | – | – | – | – | – | 66.6% | – | – | – | 60.4% | – | – | efficacy in the treated area [8, 17]: better protection than when used with SULPHUR or CHLOROTHALONIL; effect against Plasmopara viticola (Plasmopara viticola [9]): limited effect; % control observed on leaves 21 DAYS after the application (Erysiphe necator; rate 45 gr (A.I.)/ha): 68.7%; % control observed on leaves 21 DAYS after the application (Plasmopara viticola [10]; rate 45 gr (A.I.)/ha): 35.1%; % control observed on leaves 26 DAYS after the application (Venturia inaequalis [4]; rate 45 gAI/ha): 38.6%; % control observed on leaves 26 DAYS after the application (Venturia inaequalis [4]; rate 55 gAI/ha): 61.7%; % control observed on leaves 26 DAYS after the application (Venturia inaequalis [4]; rate 75 gAI/ha): 78.4%; % control observed on leaves 26 DAYS after the application (Venturia inaequalis [4]; rate 90 gAI/ha): 86.6%; % control observed on leaves 21 DAYS after the application (Sphaerotheca fuliginea; rate 75 gr (A.I.)/ha): 72.5%; % control observed on leaves 14 DAYS after the application (Alternaria solani [6]; rate 75 gAI/ha, tomato): 75.3%; % control observed on leaves 20 DAYS after the application (Alternaria solani [6]; rate 75 gAI/ha, tomato): 66.6%; Var % (14/20 DAYS) (Alternaria solani [6]; rate 75 gAI/ha, tomato): −11.6%
3 | S1SSSSSSS1 [SULPHUR] | – | – | – | – | – | – | – | – | – | – | – | – | – | – | – | – | – | – | very low | no significant difference from the untreated control | efficacy in the untreated area [8, 17]: significantly less than when FLUXAPYROXAD is used alone or with FOLPET
4 | O=C1c2ccccc2C(=O)N1SC(Cl)(Cl)Cl [FOLPET, folpet] | 53.2% | 63.6% | 73.4% | 82.1% | 73.4% | 64.9% | 58.3% | 70.3% | 72.3% | 80.6% | 72.3% | −10.3% | 56.7% | 65.3% | 67.8% | 56.7% | −16.4% | 63.4% | very low | no significant difference from the untreated control | % control observed on leaves 21 DAYS after the application (Erysiphe necator; rate 1000 gr (A.I.)/ha): 35.2%; % control observed on leaves 28 DAYS after the application (Plasmopara viticola [11]; rate 1050 gAI/ha): 87.7%; % control observed on leaves 28 DAYS after the application (Plasmopara viticola [11]; rate 1200 gAI/ha): 96.9%; % control observed on leaves 21 DAYS after the application (Plasmopara viticola [10]; rate 1000 gr (A.I.)/ha): 60.3%; % control observed on leaves 21 DAYS after the application (Sphaerotheca fuliginea; rate 900 gr (A.I.)/ha): 45.3%; % control observed on leaves 21 DAYS after the application (Sphaerotheca fuliginea; rate 1200 gr (A.I.)/ha): 54.0%; % control observed on leaves 14 DAYS after the application (Alternaria solani [6]; rate 1200 gAI/ha, tomato): 79.7%; % control observed on leaves 20 DAYS after the application (Alternaria solani [6]; rate 1200 gAI/ha, tomato): 65.3%; Var % (14/20 DAYS) (Alternaria solani [6]; rate 1200 gAI/ha, tomato): 18.1%; % control observed on leaves 20 DAYS after the application (Alternaria solani [7]; captan or folpet 900 gAI/ha): 50.5%; % control observed on leaves 21 DAYS after the application (Botrytis cinerea; rate 900 gr (A.I.)/ha): 33.3%; % control observed on leaves 21 DAYS after the application (Botrytis cinerea; rate 1200 gr (A.I.)/ha): 40.8%
5 | potassium phosphonate | – | – | – | – | – | – | – | – | – | – | – | – | – | – | – | – | – | – | – | – | % control observed on leaves 28 DAYS after the application (Plasmopara viticola [11]; rate 1575 gAI/ha): 31.7%; % control observed on leaves 28 DAYS after the application (Plasmopara viticola [11]; rate 1800 gAI/ha): 40.9%
6 | N#Cc1c(Cl)c(Cl)c(Cl)c(C#N)c1Cl [CHLOROTHALONIL, chlorothalonil] | – | – | – | – | – | – | – | – | – | – | – | – | – | – | – | – | – | – | very low | no significant difference from the untreated control | efficacy in the untreated area [8, 17]: significantly less than when FLUXAPYROXAD is used alone or with FOLPET
